# Measurements: patent publication US20070043018A1, “2"-Hydroxynicotianamine, process for producing the same and angiotensin converting enzyme inhibitor, hypotensive drug and health food” (JAPAN SCIENCE AND TECHNOLOGY AGENCY, priority 2003, published 2007)
# Columns and labels:
# [1] = target: T1, ACE from the lung of rabbit (Oryctolagus cuniculus, UniProt P12822); experiment: Measurement of ACE inhibitory activity by Cushman and Cheung method; type: biochemical; conditions: substrate hippuryl-L-histidyl-L-leucine, pH 8.3, 37° C. for 30 minutes, no pre-incubation; determined by extrapolation on the graph; read-out: concentration that indicates 50% inhibition (IC50) of ACE
# T1 construct: ACE used was a freeze dry product of ACE from the lung of rabbit (manufactured by Sigma); purchased Sigma; host or cells: rabbit lung tissue
# T1 sequence (P12822 34-1310): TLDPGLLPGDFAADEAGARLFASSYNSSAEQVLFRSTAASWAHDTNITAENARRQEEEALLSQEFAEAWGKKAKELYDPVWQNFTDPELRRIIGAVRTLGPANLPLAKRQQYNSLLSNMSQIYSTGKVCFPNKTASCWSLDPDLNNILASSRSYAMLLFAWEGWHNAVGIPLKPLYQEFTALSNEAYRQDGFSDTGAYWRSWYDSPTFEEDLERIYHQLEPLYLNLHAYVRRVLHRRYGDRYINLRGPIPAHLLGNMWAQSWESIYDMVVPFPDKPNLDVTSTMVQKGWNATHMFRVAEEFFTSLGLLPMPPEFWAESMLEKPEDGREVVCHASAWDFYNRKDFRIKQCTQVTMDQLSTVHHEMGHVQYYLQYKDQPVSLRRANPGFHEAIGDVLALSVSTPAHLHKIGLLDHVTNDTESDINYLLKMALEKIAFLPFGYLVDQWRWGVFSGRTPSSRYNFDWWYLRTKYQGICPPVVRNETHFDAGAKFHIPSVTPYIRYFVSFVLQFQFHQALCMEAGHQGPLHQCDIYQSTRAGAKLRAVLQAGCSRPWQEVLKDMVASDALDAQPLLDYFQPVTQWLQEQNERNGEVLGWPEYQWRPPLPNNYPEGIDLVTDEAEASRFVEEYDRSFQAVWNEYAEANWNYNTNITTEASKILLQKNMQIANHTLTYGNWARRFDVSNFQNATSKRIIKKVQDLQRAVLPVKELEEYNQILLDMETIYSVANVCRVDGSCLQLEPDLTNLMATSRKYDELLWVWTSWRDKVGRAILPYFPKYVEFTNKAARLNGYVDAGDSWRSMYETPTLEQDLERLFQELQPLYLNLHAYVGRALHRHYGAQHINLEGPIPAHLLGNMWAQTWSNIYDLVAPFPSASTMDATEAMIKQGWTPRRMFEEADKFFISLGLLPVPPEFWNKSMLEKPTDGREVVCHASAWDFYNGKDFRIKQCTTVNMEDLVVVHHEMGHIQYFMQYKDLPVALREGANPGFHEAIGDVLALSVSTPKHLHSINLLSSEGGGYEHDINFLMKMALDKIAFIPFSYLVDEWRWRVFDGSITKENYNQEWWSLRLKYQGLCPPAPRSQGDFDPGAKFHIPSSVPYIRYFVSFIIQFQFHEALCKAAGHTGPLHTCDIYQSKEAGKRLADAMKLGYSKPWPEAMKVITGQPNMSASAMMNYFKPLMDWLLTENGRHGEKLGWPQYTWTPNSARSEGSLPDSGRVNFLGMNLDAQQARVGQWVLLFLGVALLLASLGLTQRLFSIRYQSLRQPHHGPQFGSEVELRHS
# Description: The separation and purification process comprises the steps of: injecting the extract solution obtained in the extraction process into a column filled with the cation exchange resin or anion exchange resin by a known method; washing the column with water and eluting the column with the aqueous electrolyte solution as the eluant; and measuring the ACE inhibitory activity of the fractions obtained to collect the fractions having the ACE inhibitory activity. Known methods such as the method of Cushman and Cheung may be used for measuring the ACE inhibitory activity.
# <Measurement of ACE Inhibitory Activity>
# The ACE inhibitory activity was measured as follows by Cushman and Cheung method. […]
# After mixing the compositions of the reaction solution (i), (ii), (iii), and (iv), enzyme solution (v) was added to the mixed solution without pre-incubation, and the solution was allowed to react (incubate) at 37° C. for 30 minutes. […] The extract solution was evaporated to dryness using a centrifugal evaporator, and the residue was dissolved in 1 ml of water to measure the concentration of the extract by absorbance at 228 nm using a spectrophotometer. The measured absorbance was defined as ODs (ODs1, ODs2 and ODs3) for the measurements using samples solutions 1, 2 and 3, respectively. […]
# [2] = Solubility (other chemical and physical properties); type: physicochemical; conditions: in water, dilute acid and dilute alkali
# Protocol: While the novel substance of the invention is positive to the ninhydrin reaction, the reaction is suppressed by Cu^2+ ions. […] Almost no usual amino acids are detected when amino acids are detected with an automatic amino acid analyzer after decomposing the novel substance of the invention with 6N HCl at 110° C. for 16 hours, and the decomposition product has a complicated composition. The novel substance of the invention has a melting point of 275 to 280° C. and a specific rotation [α]D^23.6 of −40° (c=0.4 g/100 ml; solvent=water) and [α]D^23.6 of −34.5° (c=0.2 g/100 ml/; solvent=1N HCl).
IC50 [1] [µM],SMILES,solubility [2]
0.08,N[C@H](C(=O)O)C(O)CN[C@@H](CCN1CC[C@H]1C(=O)O)C(=O)O (stereo partly drawn) [2″-hydroxynicotianamine],"soluble in water, dilute acid and dilute alkali"
0.085,"N[C@@H](CCN[C@@H](CCN1CC[C@H]1C(=O)O)C(=O)O)C(=O)O [nicotianamine, Nicotianamine]",–
